What is called kinetic solubility is the concentration staying in solution when a stock, usually in DMSO, is diluted into the medium.

Molecules are shown by their SMILES. ≈ marks a conversion by molar mass, not a printed value.

Consider 53 compounds from PubChem BioAssay AID1996.

The conditions of the series: buffer; pH 7.4; 200.0 µM.
In turn, `CC(C)(C)c1ccc(-c2nc(C#N)c(NCCCn3ccnc3)o2)cc1` gave a solubility (kinetic) of 1.2 µg/mL (≈ 3.43 µM).

Compound `O=C(COC(=O)c1ccc(O)cc1)Nc1nccs1` registered a solubility (kinetic) greater than 41.7 µg/mL.

Compound `Cc1ccc(CNC(=O)CCCc2ccccc2)cc1` registered a kinetic solubility of 9.2 µg/mL (≈ 34.4 µM).

Turning to `COc1ccc(CCNC(=O)c2cc(=O)n(C)c(=O)n2C)cc1OC`, the solubility (kinetic) stood at 48.7 µg/mL (≈ 140 µM).

In the case of `CC(=O)c1ccc(NC(=O)COC(=O)Cn2cnc3ccccc32)cc1`, the solubility (kinetic) was greater than 52.7 µg/mL.

With `COc1cc2c(cc1OC)C(c1ccccc1Cl)N(C)CC2` (stereo not drawn), the solubility (kinetic) is 36.4 µg/mL (≈ 115 µM).

Compound `Cc1[nH]c2ccccc2c1/C=C/C(=O)c1ccncc1` registered a kinetic solubility of 0.7 µg/mL (≈ 2.67 µM).

Consider `Cc1ccc(SCCCCN2CCOCC2)cc1.Cl`, for which the kinetic solubility is greater than 45.3 µg/mL.

The compound `O=C(O)/C=C/C(=O)NCc1csc2ccccc12` came in with a kinetic solubility of 5.2 µg/mL (≈ 19.9 µM).

The compound `Cc1nc(N(C)Cc2ccccc2)c2c(C)c(C)sc2n1` gave a kinetic solubility of 4.2 µg/mL (≈ 14.1 µM).

Turning to `COc1ccc(CCNC(=O)COc2ccc3c(C)cc(=O)oc3c2)cc1`, the kinetic solubility turned out to be 6 µg/mL (≈ 16.3 µM).

In turn, `CC12CCC(=O)N1C(C(=O)NCc1ccccc1F)CS2` (stereo not drawn) gave a solubility (kinetic) of 44.7 µg/mL (≈ 145 µM).

Regarding `O=C(Nc1ccccc1)C1CC(=O)N(Cc2ccccc2)C1` (stereo not drawn), the kinetic solubility was greater than 44.2 µg/mL.

Regarding `COC(=O)c1ccc(Cn2cc(/C=C\[N+](=O)[O-])c3ccccc32)o1`, the solubility (kinetic) came out at 1.6 µg/mL (≈ 4.9 µM).

The compound `C=Cc1ccc(Cn2c(=O)n(C)c(=O)c3sccc32)cc1` showed a kinetic solubility of 1 µg/mL (≈ 3.35 µM).

`O=C(Nc1cccc(Cl)c1)C1CC1c1ccccc1` (stereo not drawn) registered a solubility (kinetic) of 3.3 µg/mL (≈ 12.1 µM).

The compound `Cc1ccc(CN2CC(C(=O)Nc3cccc(C)n3)CC2=O)cc1` (stereo not drawn) had a kinetic solubility greater than 48.5 µg/mL.

Consider `Cc1[nH]c2ccc(C(=O)N3CCN(C)CC3)cc2c1C`, for which the kinetic solubility was greater than 40.7 µg/mL.

`COc1ccccc1/C=C/CN1CCCCC1` yielded a solubility (kinetic) of 25.8 µg/mL (≈ 112 µM).

Consider `CCOC(=O)CNC(=O)C1c2ccccc2Oc2ccccc21`, for which the solubility (kinetic) turned out to be 1.9 µg/mL (≈ 6.1 µM).

`CC(C)[C@H](NC(=O)c1ccccc1F)C(=O)OCCN1C(=O)c2ccccc2C1=O`: the kinetic solubility is greater than 61.9 µg/mL.

`COc1ccc(CC(C)NCCc2ccc(OC)c(OC)c2)cc1` (stereo not drawn) gave a solubility (kinetic) of 48.7 µg/mL (≈ 148 µM).

Consider `COc1ccc(C)cc1Nc1nc(N)c2ccccc2n1.Cl`, for which the kinetic solubility was determined as 47.1 µg/mL.

The compound `C=CCn1c(COc2ccccc2)nc2ccccc21` showed a kinetic solubility of 31.9 µg/mL (≈ 121 µM).

As for `O=C(CNC(=O)C1CC1)Nc1ccc(F)c(F)c1F`, the kinetic solubility is greater than 40.8 µg/mL.

Regarding `CCN1C(=O)C(=Cc2ccc(N3CCOCC3)o2)C(=O)N(CC)C1=S`, the solubility (kinetic) was 1.1 µg/mL (≈ 3.03 µM).

For `CCNC(=O)CC1SC(=Nc2ccc(C)c([N+](=O)[O-])c2)N(C)C1=O` (stereo not drawn), the solubility (kinetic) was greater than 52.6 µg/mL.

For `CC(C)(C)C(=O)O/N=C(\N)c1ccc(Br)cc1`, the solubility (kinetic) was 30.3 µg/mL (≈ 101 µM).

In turn, `O=C(O)c1cccc(Nc2nc3ccccc3nc2NS(=O)(=O)c2ccccc2)c1` had a kinetic solubility greater than 63.1 µg/mL.

`Cc1c(-c2csc(N)n2)cnn1C`: the solubility (kinetic) is greater than 29.1 µg/mL.

Regarding `O=C1CC2C(=O)NCCN2C(=NC(=O)c2ccccc2)N1` (stereo not drawn), the solubility (kinetic) was 41.2 µg/mL (≈ 144 µM).

In the case of `Cc1c(C)c(C)c(CO/N=C/c2cccs2)c(C)c1C`, the kinetic solubility came to 1.3 µg/mL (≈ 4.52 µM).

The compound `CCc1ccc(NC(=O)c2ccccc2SC)cc1` returned a solubility (kinetic) of 2.4 µg/mL (≈ 8.84 µM).

Compound `CC(O)c1cccc(NC(=O)C2CCCCC2)c1` (stereo not drawn) displayed a solubility (kinetic) of 25.6 µg/mL (≈ 104 µM).

In turn, `O=C(Nc1ccc(Cl)cc1N1CCOCC1)C1CCCO1` (stereo not drawn) came in with a kinetic solubility of 44.7 µg/mL (≈ 144 µM).

`COc1ccc(S(=O)(=O)N2CC(=O)Nc3ccccc32)cc1` gave a solubility (kinetic) greater than 47.8 µg/mL.

`Cc1ccccc1NC(=O)Cc1c[nH]c2ccccc12` showed a solubility (kinetic) of 39.5 µg/mL (≈ 149 µM).

As for `Cc1onc(-c2ccc(Cl)cc2Cl)c1C(=O)/C=C/N(C)C`, the solubility (kinetic) is greater than 48.8 µg/mL.

`O=C(Oc1ccc(Cl)c2cccnc12)c1cccnc1` showed a solubility (kinetic) of 30 µg/mL (≈ 105 µM).

Compound `COC(=O)[C@@H]1CCCN1Cc1nc(Cc2ccc(OC)c(OC)c2)no1` came in with a solubility (kinetic) greater than 54.2 µg/mL.

Compound `Cc1ccc(OCC(=O)NCCNC(=O)c2cccnc2)cc1C` came in with a kinetic solubility of 46.7 µg/mL (≈ 143 µM).

Compound `Cc1cccc(C(=O)OCC(=O)Nc2ccc(F)cc2)c1` showed a solubility (kinetic) of 6.3 µg/mL (≈ 21.9 µM).

`O=C(Nc1ccc(COc2ccccc2)cc1)Nc1cccc(C(=O)O)c1` registered a kinetic solubility of 12.1 µg/mL (≈ 33.4 µM).

`COc1ccc(CCNC(=O)COc2ccccc2[N+](=O)[O-])cc1OC` gave a kinetic solubility greater than 54.1 µg/mL.

For `OCc1c[nH]c2ccccc12`, the solubility (kinetic) was determined as 7 µg/mL (≈ 47.6 µM).

For `CC(=O)Nc1ccc(OCC(O)Cn2nc(C)c(C)c2C)cc1` (stereo not drawn), the kinetic solubility was greater than 47.6 µg/mL.

Compound `NC(=S)N/N=C/c1c[nH]c2ccccc12` registered a solubility (kinetic) greater than 32.7 µg/mL.

On to `O=C(COC(=O)c1ccccc1Cl)Nc1ccc2[nH]c(=O)[nH]c2c1`, for which the kinetic solubility was 23.3 µg/mL (≈ 67.4 µM).

With `CCC(=O)NCCc1nc2cc(NC(=O)c3cccs3)ccc2n1C`, the kinetic solubility was greater than 53.5 µg/mL.

The compound `CCOC(=O)c1sc(Nc2ccc(Br)cc2)nc1C` displayed a kinetic solubility of 1.2 µg/mL (≈ 3.52 µM).

Regarding `COc1cc(NC(=O)c2ccccc2)c(OC)cc1NC(=O)Cc1ccc(C)cc1`, the solubility (kinetic) was less than 0.4 µg/mL.

`CCOc1ccc2nc(SCC(=O)Nc3cc(C)on3)c(C)cc2c1` showed a kinetic solubility of less than 0.3 µg/mL.

Turning to `O=C(NC1CC2CCCC(C1)N2Cc1ccc(F)cc1)c1ccc(F)cc1` (stereo not drawn), the kinetic solubility was greater than 55.6 µg/mL.
